In patent publication US6849732B2, “Metalloproteinase inhibitors, pharmaceutical compositions containing them and their pharmaceutical uses, and methods and intermediates useful for their preparation” (Agouron Pharmaceuticals, Inc., priority 1995, dated 2005):
Counter-ions that a name gives are not always drawn. Like-named read-outs stand apart in the source and are kept apart here.

Tests used:
Assay type in all cases: biochemical
stromelysin (HSLN) = stromelysin (HSLN) (Homo sapiens, UniProt P08254); assay: MCA fluorogenic enzyme assay, competitive inhibition analysis (Ki,app), stromelysin
matrilysin (Matr.) = molecular target: T1, matrilysin (Matr.) (Homo sapiens, UniProt P09237); assay: MCA fluorogenic enzyme assay, competitive inhibition analysis (Ki,app), matrilysin; conditions: MCA peptide substrate, 37° C., pH 7.5, read-out: Enzyme Inhibition Constants (K1) Matr.
T1 sequence (P09237 95-267): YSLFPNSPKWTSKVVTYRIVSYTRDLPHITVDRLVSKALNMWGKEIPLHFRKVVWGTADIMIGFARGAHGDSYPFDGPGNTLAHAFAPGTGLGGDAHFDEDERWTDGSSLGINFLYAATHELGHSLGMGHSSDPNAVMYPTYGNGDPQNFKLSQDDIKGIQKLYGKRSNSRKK
Method: Stromelysin enzymatic activity was measured using a modified version of a resonance energy transfer fluorogenic assay as described in FEBS, vol. 296(3), p. 263 (1992), the disclosure of which is incorporated herein by reference. The MCA-peptide substrate is shown below. The fluorescent MCA group is quenched by resonance energy transfer to the 2,4-dinitrophenyl group. Matrix metalloproteinases cleave this substrate at the Gly-Leu bond. Cleavage results in the loss of energy transfer and a large increase in fluorescence of the MCA group. [drawing 56] 7-methoxycoumarin-4-yl-acetyl-pro-leu-gly-leu-3-(2,4-dinitrophenyl)-L-2,3-diaminoproprionyl-ala-arg-NH2
The MCA assay was performed at 37° C. in buffer containing 50 mM Tricine (pH 7.5), 10 mM CaCl2, 200 mM NaCl, and 1% DMSO with the following concentrations of matrix metalloproteinases: 1.4 nM stromelyin, 0.063 nM matrilysin, and 0.030 nM gelatinase A. The concentration of MCA substrate was 10 or 20 μM in a final volume of 1.6 mL. Fluorescence data was collected with Perkin-Elmer LS-5B and LS-5B spectrofluorimeters with λexcitation=328 nm and λemission=393 nm. Spectrofluorimeters were interfaced with IBM-compatible microcomputer systems.
The Km for the MCA peptide substrate with the matrix metalloproteinases is quite high and exceeds its solubility under assay conditions. Consequently, the apparent Ki (Ki,app) was determined to describe the strength of inhibition. However, in this case, Ki,app would be essentially equal to Ki since [S]<<Km. For the determination of Ki,app, the concentration of the inhibitor was varied at a constant and low concentration of substrate and the steady-state rates of fluorescence change determined. In most cases absorptive quench due to the presence of ligand was not observed. For slow-binding inhibitors, onset of inhibition curves were collected for at least 45 minutes so that equilibrium was established. Steady-state rates of fluorescence change were obtained by fitting a curve to an equation for a single exponential decay containing a linear phase. The fitted value of the linear phase was taken as the steady-state rate. The steady-state rates were fitted to the Michaelis equation describing competitive inhibition by non-linear methods. Data resulting from tight-binding inhibition was analyzed, and Ki,app determined by fitting the data to the tight-binding equation of Morrison See (Biochem. Biophys. Acta, vol. 185, pp. 269-286 (1969)) by non-linear methods.

HFC = molecular target: T2, HFC (Homo sapiens, UniProt P03956); assay: MCA fluorogenic enzyme assay, competitive inhibition analysis (Ki,app), HFC; conditions: MCA peptide substrate, 37° C., pH 7.5, read-out: Enzyme Inhibition Constants (K1) HFC
T2 sequence (P03956 100-469): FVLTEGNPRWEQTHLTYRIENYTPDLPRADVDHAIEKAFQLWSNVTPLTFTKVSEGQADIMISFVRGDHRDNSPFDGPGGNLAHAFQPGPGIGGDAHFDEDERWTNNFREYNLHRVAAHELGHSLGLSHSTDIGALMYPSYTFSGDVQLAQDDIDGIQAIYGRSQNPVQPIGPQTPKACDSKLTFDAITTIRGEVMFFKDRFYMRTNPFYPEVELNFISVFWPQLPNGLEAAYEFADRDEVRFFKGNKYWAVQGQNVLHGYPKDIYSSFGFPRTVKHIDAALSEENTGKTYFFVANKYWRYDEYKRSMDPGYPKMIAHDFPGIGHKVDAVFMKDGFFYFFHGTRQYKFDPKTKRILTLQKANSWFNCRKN

gelatinase A (HG72kD) = molecular target: T3, gelatinase A (HG72kD) (Homo sapiens, UniProt P08253); assay: MCA fluorogenic enzyme assay, competitive inhibition analysis (Ki,app), gelatinase A; conditions: MCA peptide substrate, 37° C., pH 7.5, read-out: Enzyme Inhibition Constants (K1) HG72kD
T3 sequence (P08253 110-660): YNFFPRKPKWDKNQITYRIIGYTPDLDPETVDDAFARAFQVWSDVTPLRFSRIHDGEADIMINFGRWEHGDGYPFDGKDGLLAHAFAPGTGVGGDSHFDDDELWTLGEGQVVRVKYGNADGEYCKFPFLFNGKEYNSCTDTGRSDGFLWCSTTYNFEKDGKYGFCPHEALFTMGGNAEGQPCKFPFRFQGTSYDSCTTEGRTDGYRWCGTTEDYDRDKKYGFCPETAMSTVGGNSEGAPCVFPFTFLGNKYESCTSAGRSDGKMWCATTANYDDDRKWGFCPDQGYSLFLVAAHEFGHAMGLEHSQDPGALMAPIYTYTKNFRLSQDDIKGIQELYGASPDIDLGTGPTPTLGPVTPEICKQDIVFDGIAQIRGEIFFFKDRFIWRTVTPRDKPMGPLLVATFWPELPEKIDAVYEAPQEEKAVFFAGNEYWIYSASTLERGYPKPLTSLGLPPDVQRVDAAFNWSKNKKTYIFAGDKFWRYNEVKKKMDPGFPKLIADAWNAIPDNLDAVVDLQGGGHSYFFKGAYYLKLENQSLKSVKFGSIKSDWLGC

Coll3 = Coll3 (Homo sapiens, UniProt P45452); assay: MCA fluorogenic enzyme assay, competitive inhibition analysis (Ki,app), Coll3; conditions: MCA peptide substrate, 37° C., pH 7.5, read-out: Enzyme Inhibition Constants (K1) Coll3
[1] = Ki,app, MCA peptide substrate, 37° C., pH 7.5, read-out: Enzyme Inhibition Constants (K1) HSLN

stromelysin (HSLN), sequence (P08254 100-477): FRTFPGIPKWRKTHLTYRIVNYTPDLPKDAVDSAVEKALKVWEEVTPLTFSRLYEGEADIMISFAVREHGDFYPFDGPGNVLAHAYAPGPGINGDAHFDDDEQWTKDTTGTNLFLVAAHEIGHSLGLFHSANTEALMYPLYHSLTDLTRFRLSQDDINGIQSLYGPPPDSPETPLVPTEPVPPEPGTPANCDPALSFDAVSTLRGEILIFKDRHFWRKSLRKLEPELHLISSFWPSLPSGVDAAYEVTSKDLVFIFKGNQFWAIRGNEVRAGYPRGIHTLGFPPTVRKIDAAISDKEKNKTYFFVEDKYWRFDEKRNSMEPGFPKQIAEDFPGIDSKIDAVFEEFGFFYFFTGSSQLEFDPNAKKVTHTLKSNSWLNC

| Structure (SMILES) | Ki (stromelysin (HSLN); [1]) | Ki (matrilysin (Matr.)) | Ki (HFC) | Ki (gelatinase A (HG72kD)) | Ki (Coll3) | Ki (stromelysin (HSLN)) |
| --- | --- | --- | --- | --- | --- | --- |
| CS(=O)(=O)N1CCN(S(=O)(=O)c2ccc(Oc3ccc(F)cc3)cc2)[C@@H](C(=O)NO)C1 [Example 12(b)] | 0.13 nM | 52 nM | 4.7 nM | 0.007 nM | 0.005 nM |  |
| CC1(C)[C@H](C(=O)NO)N(S(=O)(=O)c2ccc(Oc3ccncc3)cc2)CC[S@+]1[O-] [Example 19(a), 1(S), 3(S) isomer, 1(S), 3(S)-N-hydroxy-4-(4-((pyrid-4-yl)oxy)benzenesulfonyl)-2,2-dimethyl-1-oxotetrahydro-2H-1,4-thiazine-3-carboxamide] | 2.3 nM |  | 31 nM | 0.49 nM | 0.16 nM |  |
| CC1(C)SCCN(S(=O)(=O)c2ccc(Oc3ccccn3)cc2)[C@H]1C(=O)NO [Example 18(b), 3(S)-N-hydroxy-4-(4-((pyrid-2-yl)oxy)benzenesulfonyl)-2,2-dimethyl-tetrahydro-2H-1,4-thiazine-3-carboxamide] |  | 70 nM | 12 nM | 0.202 nM | 0.074 nM | 0.51 nM |
| Cn1cnc(S(=O)(=O)N2CCN(S(=O)(=O)c3ccc(Oc4ccc(Cl)cc4)cc3)[C@@H](C(=O)NO)C2)c1 [Example 12(d), 2 (R)-N-hydroxy-1-(4-(4-chlorophenoxy)benzenesulfonyl)-4-(1-methylimidazole-4-sulfonyl)-piperazine-2-carboxamide] | 0.09 nM | 40 nM | 7 nM | 0.004 nM | 0.006 nM |  |
| CC(C)(C)OC(=O)N1CCN(S(=O)(=O)c2ccc(Oc3ccccn3)cc2)C(C(=O)NO)C1 (racemic) [Example 9(d), 2(R/S)-N-hydroxy-1-(4-(pyrid-2-yl)oxybenzenesulfonyl)-4-(t-butoxycarbonyl)-piperazine-2-carboxamide] | 17 nM | 2850 nM | 550 nM | 0.716 nM | 1.64 nM |  |
| CC(=O)N1CCCN(S(=O)(=O)c2ccc(Oc3ccc(F)cc3)cc2)C1C(=O)NO (racemic) [Example 22, 2(R/S)-3-acetyl-1-4-(4-fluorophenoxy)benzenesulfonyl-N-hydroxy-hexahydropyrimidine-2-carboxamide] | 4.4 nM |  |  | 0.077 nM | 0.088 nM |  |
| O=C1C[C@H](C(=O)NO)N(S(=O)(=O)c2ccc(Oc3ccccc3)cc2)CN1 [Example 15(a), 6(R)-(N-hydroxycarbamoyl)-1-(4-phenoxy)benzenesulfonyl-tetrahydropyrimidin-4-one] | 4.6 nM | 1300 nM | 210 nM | 0.057 nM | 0.124 nM |  |
| COc1ccc(Oc2ccc(S(=O)(=O)N3CCN(S(C)(=O)=O)CC3C(=O)NO)cc2)cc1 (racemic) [Example 12(c)] | 0.19 nM | 74 nM | 16 nM |  |  |  |
| O=C(NO)C1CSCCN1S(=O)(=O)c1ccc(Oc2ccc(Br)cc2)cc1 (racemic) [Example 13(a), 3(R/S)-N-hydroxy4-(4-bromophenoxybenzenesulfonyl)-tetrahydro-2H-1,4-thiazine-3-carboxamide] | 0.333 nM | 169 nM |  | 0.04 nM |  |  |
| O=C1C[C@H](C(=O)NO)N(S(=O)(=O)c2ccc(Oc3ccc(F)cc3)cc2)CN1 [Example 15(b), 6(R)-(N-hydroxycarbamoyl)-1-(4-(4-fluorophenoxy)benzene-sulfonyl)-tetrahydropyrimidin-4-one] | 5.1 nM | 1840 nM | 187 nM | 0.152 nM |  |  |
| CN1CCN(S(=O)(=O)c2ccc(Oc3ccccc3)cc2)[C@@H](C(=O)NO)C1 [Example 11(b), 2(R)-N-hydroxy-1-(4-phenoxybenzenesulfonyl)-4-methyl-piperazine-2-carboxamide] | 6.3 nM | 2180 nM |  | 0.101 nM | 0.158 nM |  |
| O=C(NO)C1CSCCN1S(=O)(=O)c1ccc(Oc2ccccc2)cc1 (racemic) [Example 13(b), 3(R/S)-N-hydroxy-4-(4-phenoxybenzenesulfonyl)-tetrahydro-2H-1,4-thiazine-3-carboxamide] | 0.647 nM | 201 nM |  | 0.025 nM | 0.029 nM |  |
| CC1(C)NC(=O)CN(S(=O)(=O)c2ccc(Oc3ccc(F)cc3)cc2)C1C(=O)NO (racemic) [Example 21, 2(R/S)-1-[4-(4-fluorophenoxy)benzenesulfonyl]-3,3-dimethyl-N-hydroxy-5-oxo-piperazine-2-carboxamide] | 0.84 nM |  | 5.9 nM | 0.066 nM | 0.068 nM |  |
| CNC(=O)N1CCN(S(=O)(=O)c2ccc(Oc3ccc(Cl)cc3)cc2)C(C(=O)NO)C1 (racemic) [Example 6(a), 2(R/S)-N-hydroxy-1-(4-(4-chlorophenoxy)benzenesulfonyl)-4-(N-methylcarbamoyl)-piperazine-2-carboxamide] | 0.406 nM | 109 nM |  | 0.034 nM | 0.016 nM |  |
| CC(C)(C)OC(=O)N1CCN(S(=O)(=O)c2ccc(Oc3ccc(F)cc3)cc2)[C@@H](C(=O)NO)C1 [Example 9(b), 2(R)-N-hydroxy-1-(4-(4-fluorophenoxy)benzenesulfonyl)-4-(t-butoxycarbonyl)-piperazine-2-carboxamide] | 0.49 nM | 220 nM | 18 nM | 0.026 nM |  |  |
| CC1(C)[C@H](C(=O)NO)N(S(=O)(=O)c2ccc(Oc3ccncc3)cc2)CC[S@@+]1[O-] (single isomer, unassigned; isomer 1) [Example 19(a), 1(R), 3(S) isomer] | 1.4 nM |  | 32 nM | 0.094 nM | 0.13 nM |  |
| CCOC(=O)CN1CCN(S(=O)(=O)c2ccc(Oc3ccc(Cl)cc3)cc2)[C@@H](C(=O)NO)C1 [Example 11(c), 2(R)-N-hydroxy-1-(4-(4-chlorophenoxy)benzenesulfonyl)-4-(ethoxycarbonylmethyl)-piperazine-2-carboxamide hydrochloride] | 0.25 nM | 240 nM | 48 nM |  |  |  |
| CC1(C)SCCN(S(=O)(=O)c2ccc(Oc3ccc(Cl)cc3)cc2)[C@H]1C(=O)NO [Example 3(b), 3(S)-N-hydroxy4-(4-(4-chlorophenoxy)benzenesulfonyl)-2,2-dimethyl-tetrahydro-2H-1,4-thiazine-3-carboxamide] | 0.059 nM |  | 1.3 nM | 0.017 nM | 0.001 nM |  |
